According to patent US12156873B2, “Composition for treating ocular hyperemia and a method for treating ocular hyperemia with the same” (ADS Therapeutics LLC, priority 2018, dated 2024):

Key:
Format in all cases: in vivo
[1] = test system: Ocular hyperemia patients; test: Ocular hyperemia patients treated topically with emulsion formulations BID for 2 weeks, hyperemia graded from eye pictures
Experimental: Ocular hyperemia patients with hyperemia grade >2 (0-4, five-point scale; 0 being clear of hyperemia and 4 being of severe hyperemia) are selected for treatment with 4 emulsion formulations. Each group has about 20 patients. The patients are assigned to the groups in a way to make sure the base line average grade is similar among the groups. The formulations are dosed twice a day (BID) for 2 weeks and the patients are further followed up for 4 weeks. The formulations are administered topically by a physician on the day of visits or by the patient between visits. Patients are evaluated on day 1, week 1, and 2, before and after dosing. After the stop of dosing, patients are further followed up at 4 and 6 weeks.
The effect on ocular hyperemia is evaluated by taking pictures of the eye. […] The tolerability of the formulations is also evaluated with standard eye examinations commonly used for such assessment. The efficacy and tolerability data are analyzed by independent statisticians.

pterygium patients [2] = test: Phase 2a clinical trial stage 1: single dose escalating safety, tolerability and pharmacokinetics study; conditions: single dose 0.02%, 0.05%, 0.2% eye drop
Experimental: (§1) Nintedanib was formulated into an eye drop and tested in pterygium patients in a Phase 2a clinical trial to evaluate the safety and efficacy of nintedanib. The key efficacy endpoint is effects on pterygium vascularity.
The clinic trial was conducted in two stages. In stage 1, the safety, tolerability and pharmacokinetics were evaluated in a single dose escalating study. Three dose cohorts with 8 patients in each were evaluated. Cohort 1 began at the lowest concentration of 0.02% nintedanib (weight percent based on the total weight of the eye drop), followed by an increasing dose to 0.05% for Cohort 2 and then to 0.2% for Cohort 3.

pterygium patients [3] = test: Phase 2a clinical trial stage 2: 0.2% nintedanib eye drop vs vehicle, 28 days TID, pterygium vascularity graded from photographs
Experimental: as §1
In stage 2, the safety, tolerability and efficacy of the 0.2% formulation were evaluated in a randomized, double-masked, vehicle-controlled, parallel study with 28 days TID repeat ocular dosing of vehicle and 0.2% nintedanib. The patients were further followed up by 20 weeks of post-dosing observation. Ophthalmic and physical examinations were performed at screening, Day 1 and Week 2, 4, 8, 16, and 24. External photograph of the pterygium eye was taken using a digital camera and the pterygium vascularity was graded from these images at an independent image reading center. The primary objective is to evaluate ocular and systemic safety of nintedanib in pterygium patients that have moderate to severe pterygium vascularity. The secondary objective is to assess whether the formulation is efficacious in reducing pterygium vascularity.
A total of 50 patients were enrolled and randomized in a 1:1 treatment allocation to receive either nintedanib or vehicle. The final analysis was performed after study completion. The O'Brien-Fleming group-sequential method was used for a multiple-comparison adjustment of p-values for efficacy. For the final analysis, a 2-sided test with p-value ≤0.048 is considered statistically significant for all between and within treatment comparisons.

[4] = Day 1 before dosing (baseline), 0-4 five-point scale, BID topical
[5] = Wee 4 (follow-up, 2 weeks after stop of dosing), 0-4 scale
[6] = Week 6 (follow-up, 4 weeks after stop of dosing), 0-4 scale

## Brc1c(NC2=NCCN2)ccc2nccnc12 [Brimonidine, (5-Bromoquinoxalin-6-yl)-(4,5-dihydro-1H-imidazol-2-yl)-amine]
[1]; Day 1 2 h post, 0-4 scale
  Average Hyperemia Grade: 2
[1]; Day 1 6 h post, 0-4 scale
  Average Hyperemia Grade: 3
[1]; [4]
  Average Hyperemia Grade: 3
[1]; [5]
  Average Hyperemia Grade: 3
[1]; Week 1 2 h post, 0-4 scale
  Average Hyperemia Grade: 2
[1]; Week 1 before, 0-4 scale
  Average Hyperemia Grade: 3
[1]; Week 2 2 h post, 0-4 scale
  Average Hyperemia Grade: 2
[1]; Week 2 before, 0-4 scale
  Average Hyperemia Grade: 3
[1]; [6]
  Average Hyperemia Grade: 3
[1]; after dosing
  duration of effect on hyperemia grade at each of the visits: 2 to 4 h
[1]; day 1, week 1 and 2
  hyperemia grade after dosing: reduced immediately after dosing
[1]; week 4 and 6
  hyperemia grade after stop of treatments: the same as the baseline

## COC(=O)c1ccc2c(c1)NC(=O)/C2=C(\Nc1ccc(N(C)C(=O)CN2CCN(C)CC2)cc1)c1ccccc1 [Nintedanib, (Z)-3-(1-(4-(N-((4-methyl-piperazin-1-yl)-methylcarbonyl)-N-methyl-amino)-phenylamino)-1-phenyl-methylene]-6-methoxycarbonyl-2-indolinone]
[1]; Day 1 2 h post, 0-4 scale
  Average Hyperemia Grade: 3
[1]; Day 1 6 h post, 0-4 scale
  Average Hyperemia Grade: 3
[1]; [4]
  Average Hyperemia Grade: 3
[1]; [5]
  Average Hyperemia Grade: 2.5
[1]; Week 1 2 h post, 0-4 scale
  Average Hyperemia Grade: 2
[1]; Week 1 before, 0-4 scale
  Average Hyperemia Grade: 2
[1]; Week 2 2 h post, 0-4 scale
  Average Hyperemia Grade: 2
[1]; Week 2 before, 0-4 scale
  Average Hyperemia Grade: 2
[1]; [6]
  Average Hyperemia Grade: 3
[1]; after 2 weeks BID dosing
  time the grade reduction remained significant after the stop of dosing: 2 weeks
[1]; day 1, comparing to the baseline
  hyperemia grade, drug effect on day 1: did not change significantly
[1]; week 1 and 2
  hyperemia grade reduction from baseline: about 1 grade
Pterygium patients [2]
  safety: No safety issues were found at all doses
Pterygium patients [3]; 0.2% eye drop, 28 days TID
  safety and tolerability: excellent with no serious adverse events
Pterygium patients [3]; Day 1 (baseline)
  Mean grade Difference, nintedanib vs vehicle (pterygium vascularity): −0.15
Pterygium patients [3]; Week 2
  Mean change from baseline Difference, nintedanib vs vehicle (pterygium vascularity): −0.72
  Mean grade Difference, nintedanib vs vehicle (pterygium vascularity): −0.87
Pterygium patients [3]; Week 4 (end of dosing)
  Mean change from baseline Difference, nintedanib vs vehicle (pterygium vascularity): −0.76
  Mean grade Difference, nintedanib vs vehicle (pterygium vascularity): −0.91
Pterygium patients [3]; Week 8
  Mean change from baseline Difference, nintedanib vs vehicle (pterygium vascularity): −0.41
  Mean grade Difference, nintedanib vs vehicle (pterygium vascularity): −0.53
Pterygium patients [3]; Week 16
  Mean change from baseline Difference, nintedanib vs vehicle (pterygium vascularity): −0.59
  Mean grade Difference, nintedanib vs vehicle (pterygium vascularity): −0.7
Pterygium patients [3]; Week 24 (end of study)
  Mean change from baseline Difference, nintedanib vs vehicle (pterygium vascularity): −0.17
  Mean grade Difference, nintedanib vs vehicle (pterygium vascularity): −0.31
Pterygium patients [3]; after 28 days TID dosing
  persistence of effect on pterygium vascularity: maintained through Week 16
Pterygium patients [3]; by Week 2
  effect on pterygium vascularity: highly significant
